Laboratory results as given in US20250332290A1, “PSMA-TARGETING LIGANDS FOR MULTIMODAL APPLICATIONS” (STICHTING RADBOUD UNIVERSITAIR MEDISCH CENTRUM, priority 2021, published 2025).
Several values for one entry are separate records, joined by “and”; a condition that tells them apart may be missing. Equal values may be shown once. Values belong to the molecule of their own block, whether it stands above or below them.

Legend:
[1] = Lipophilicity, LogD of radiolabeled ligands in PBS (pH 7.4) / n-octanol; assay type: physicochemical; settings: radiolabeled ligand
Procedure: (§1) IC50: The 50% inhibitory concentration (IC50) of the ligands was determined using LS174T-PSMA cells in a competitive binding assay. The LS174T-PSMA cells were cultured to confluency in 6-wells plates, followed by incubation on ice for 2 h in 1 mL of binding buffer (RPMI/0.5% BSA) with 50,000 cpm of ^111In-labeled PSMA-617 and a series of increasing concentrations (0.01-300 nM) of unlabeled PSMA ligands. After incubation, cells were washed with 2 ml PBS and lysed with 1.5 ml 0.1 M NaOH. Cell lysis was collected from the plate and the cell-associated activity was measured in a gamma-counter and IC50 values were calculated using GraphPad Prism software version 5.03. Lipophilicity: LogD values of all radiolabeled ligands were determined by adding 300,000 cpm (0.6-1.5 pmol) to a mixture of 3 ml PBS (pH 7.4) and 3 ml n-octanol. Tubes were vortexed vigorously for 1 min and centrifuged for 5 min at 201×g. The concentration of radioactivity in a defined volume of each layer was measured in a well-type gamma-counter.

PSMA (LS174T-PSMA cells) [2] = molecular target: T1, PSMA (LS174T-PSMA cells) (Homo sapiens, UniProt Q04609); assay: Alternative internalization assay in LS174T-PSMA cells; assay type: cell-based; settings: 2 h at 37° C.
T1 construct: expressed in transfected cells
Procedure: Alternative internalization assay: binding and internalization characteristics of all ligands were compared using LS174T-PSMA and wildtype LS174T cells, cultured to confluency in 6-wells plates. Cells were incubated with 50,000 counts per minute (cpm) ^111In- or ^99mTc-labeled PSMA ligand (0.1-0.25 pmol/well) in 1 ml binding buffer (RPMI/0.5% BSA) for 2 h at 37° C. Nonspecific binding was determined by co-incubation with 2-(phosphonomethyl) pentane-1,5-dioic acid (2-PMPA, 21.57 µM). Cells were washed with PBS and incubated with acid buffer (0.1 M acetic acid, 154 mM NaCl, pH 2.6) for 10 minutes at 0° C. to retrieve the membrane-bound fraction. After this, the membrane-bound fraction was collected, cells were washed, lysed with 1.5 ml 0.1 M NaOH and cell lysis (intracellular activity) was collected. Membrane-bound activity and intracellular activity fractions were measured in a gamma-counter (2480 WIZARD^2 Automatic Gamma Counter, PerkinElmer) (6,42).

PSMA (LS174T-PSMA cells) [3] = molecular target: T1, PSMA (LS174T-PSMA cells); assay: Competitive binding assay against 111In-labeled PSMA-617 using LS174T-PSMA cells; settings: on ice 2 h, 111In-labeled PSMA-617 as competitor, unlabeled ligand 0.01-300 nM
Procedure: as §1

PSMA (LS174T-PSMA cells) [4] = molecular target: T1, PSMA (LS174T-PSMA cells); assay: Binding and internalization assay with 111In-labelled ligands on PSMA-expressing LS174T-PSMA cells; assay type: cell-based; settings: for Average binding %, Internalized / Average binding %, Membrane bound / Average binding %, Total: 111In-labelled, 50,000 cpm, 2 h at 37° C., LS174T-PSMA cells
Procedure: Each labelled ligand (0.01 mL) was dissolved in PBS (0.5 mL) and diluted 1:10:100 in three tubes, resulting in tube 1 1×, tube 2 10× and tube 3 100× dilution. The tubes were measured by a gamma-counter to determine the counts per minute of known ligand concentrations. The calculated amounts of ligand were transferred from tubes 2 into new tubes and filled with binding buffer to total volume 0.5 mL. These solutions are needed for the binding and internalization assay.
Two days before the assay, four six-well plates were plated with 0.3-1.0 million PSMA-expressing LS174T-PSMA cells per well in culture medium (2 mL). On the day of the assay, the cells were washed with PBS. Binding buffer (0.5% BSA in RMPI 1640, 2 mL) and 50,000 counts per minute of radiolabelled PSMA-ligand (0.005 mL) were added from tubes prepared according to calculation with standards. Each ligand was examined in triplicate. The cells were incubated at 37° C. for 2 hours and after this the medium was removed. The cells were washed with ice-cold PBS and cooled to 0° C. After incubating the cells with acid buffer pH 2.6 (0.1M acetic acid, 0.15 M NaCl, 2 mL) for 10 minutes, the membrane-bound ligands were collected in tubes. The cells were washed with ice-cold PBS again and these fractions were collected as control. NaOH was added to the cells (0.1 M, 2 mL) for 10 minutes to lyse the cells and free the internalized ligands. The ^111In-radiocounts per minute of all fractions and standards were measured by a gamma-counter. From this, the ligand-PSMA binding percentages and internalization fraction were quantified.

T1 sequence (Q04609 whole entry): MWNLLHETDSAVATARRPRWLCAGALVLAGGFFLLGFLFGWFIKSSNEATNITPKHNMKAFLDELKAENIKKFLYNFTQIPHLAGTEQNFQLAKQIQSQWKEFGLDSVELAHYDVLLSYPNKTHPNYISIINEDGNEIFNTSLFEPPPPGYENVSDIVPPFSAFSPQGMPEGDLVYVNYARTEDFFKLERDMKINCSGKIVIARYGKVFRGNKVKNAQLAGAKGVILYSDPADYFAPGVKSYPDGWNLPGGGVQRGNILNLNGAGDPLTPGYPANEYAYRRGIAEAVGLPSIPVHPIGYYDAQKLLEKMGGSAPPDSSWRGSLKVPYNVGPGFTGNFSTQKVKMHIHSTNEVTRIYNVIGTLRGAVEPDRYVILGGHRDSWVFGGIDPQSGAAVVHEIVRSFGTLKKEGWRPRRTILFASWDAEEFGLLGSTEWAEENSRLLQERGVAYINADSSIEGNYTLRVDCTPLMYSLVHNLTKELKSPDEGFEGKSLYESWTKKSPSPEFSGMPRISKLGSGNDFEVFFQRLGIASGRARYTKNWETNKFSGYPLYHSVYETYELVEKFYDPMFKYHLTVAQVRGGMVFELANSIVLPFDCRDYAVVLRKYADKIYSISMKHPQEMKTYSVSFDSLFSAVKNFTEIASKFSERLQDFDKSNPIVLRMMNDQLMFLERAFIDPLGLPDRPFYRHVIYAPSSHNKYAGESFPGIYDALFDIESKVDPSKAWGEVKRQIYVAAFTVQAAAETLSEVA

LogD [1]: −4.4 +/− 0.01
Internalization Ratio (%) (PSMA (LS174T-PSMA cells) [2]): 74.1 +/− 20.3%
IC50 (PSMA (LS174T-PSMA cells) [3]): 312 nM
Structure (SMILES): CC1(C)C(=CC=C2CCCC(C=CC3=[N+](CCCCCC(=O)NCCCCC(NC(=O)CN4CCN(CC(=O)O)CCN(CC(=O)O)CCN(CC(=O)O)CC4)C(=O)NCCCCC(NC(=O)C(CCC(=O)O)NC(=O)c4cccnc4)C(=O)NCc4ccc(C(=O)NC(Cc5ccc6ccccc6c5)C(=O)NCCCCC(NC(=O)NC(CCC(=O)O)C(=O)O)C(=O)O)cc4)c4ccc(S(=O)(=O)O)cc4C3(C)C)=C2Oc2ccc(S(=O)(=O)O)cc2)N(CCCCS(=O)(=O)O)c2ccc(S(=O)(=O)O)cc21 (stereo not shown) [Compound K11]

LogD [1]: −3.2 +/− 0.16
Internalization Ratio (%) (PSMA (LS174T-PSMA cells) [2]): 80.6 +/− 11.6%
IC50 (PSMA (LS174T-PSMA cells) [3]): 184 nM
Structure (SMILES): CC1(C)C(/C=C/C2=C(Oc3ccc(S(=O)(=O)O)cc3)C(=C/C=C3/N(CCCCS(=O)(=O)O)c4ccc(S(=O)(=O)O)cc4C3(C)C)/CCC2)=[N+](CCCCCC(=O)NCCC(=O)N2Cc3ccccc3-c3c(cnn3CCCCC(NC(=O)CN3CCN(CC(=O)O)CCN(CC(=O)O)CCN(CC(=O)O)CC3)C(=O)NCCCC[C@H](NC(=O)[C@H](CCC(=O)O)NC(=O)c3cccnc3)C(=O)NCc3ccc(C(=O)N[C@@H](Cc4ccc5ccccc5c4)C(=O)NCCCC[C@H](NC(=O)N[C@@H](CCC(=O)O)C(=O)O)C(=O)O)cc3)-c3ccccc32)c2ccc(S(=O)(=O)O)cc21 (stereo partly shown) [Compound K13]

Further lines, the molecule ahead of its results:

Structure (SMILES): CC(=O)SCC(=O)NCC(=O)NCC(=O)NCC(=O)NC(CCCCNC(=O)CCCCC[N+]1=C(C=CC2=C(Oc3ccc(S(=O)(=O)O)cc3)C(=CC=C3N(CCCCS(=O)(=O)O)c4ccc(S(=O)(=O)O)cc4C3(C)C)CCC2)C(C)(C)c2cc(S(=O)(=O)O)ccc21)C(=O)NCCCCC(NC(=O)C(CCC(=O)O)NC(=O)c1cccnc1)C(=O)NCc1ccc(C(=O)NC(Cc2ccc3ccccc3c2)C(=O)NCCCCC(NC(=O)NC(CCC(=O)O)C(=O)O)C(=O)O)cc1 (stereo not shown) [Compound K12]
LogD [1]: −3.5 +/− 0.01
Internalization Ratio (%) (PSMA (LS174T-PSMA cells) [2]): 61.0 +/− 12.8%
IC50 (PSMA (LS174T-PSMA cells) [3]): 475 nM

Structure (SMILES): O=C(O)CC[C@H](NC(=O)N[C@@H](CCCCNC(=O)[C@H](Cc1ccc2ccccc2c1)NC(=O)[C@H]1CC[C@H](CNC(=O)CN2CCN(CC(=O)O)CCN(CC(=O)O)CCN(CC(=O)O)CC2)CC1)C(=O)O)C(=O)O [PSMA-617, reference compound]
LogD [1]: −4.1 +/− 0.01
Internalization Ratio (%) (PSMA (LS174T-PSMA cells) [2]): 48.4 +/− 12.4%
Average binding %, Internalized (PSMA (LS174T-PSMA cells) [4]): 3.39%
Average binding %, Membrane bound (PSMA (LS174T-PSMA cells) [4]): 3.80%
Average binding %, Total (PSMA (LS174T-PSMA cells) [4]): 7.19%
IC50 (PSMA (LS174T-PSMA cells) [3]): 8.5 nM

Structure (SMILES): O=C(O)CC[C@H](NC(=O)N[C@@H](CCCCNC(=O)[C@H](Cc1ccc2ccccc2c1)NC(=O)c1ccc(CNC(=O)[C@H](CCCCNC(=O)CN2CCN(CC(=O)O)CCN(CC(=O)O)CCN(CC(=O)O)CC2)NC(=O)[C@H](CCC(=O)O)NC(=O)c2ccccc2)cc1)C(=O)O)C(=O)O [Compound K9]
Average binding %, Internalized (PSMA (LS174T-PSMA cells) [4]): 9.06%
Average binding %, Membrane bound (PSMA (LS174T-PSMA cells) [4]): 9.87%
Average binding %, Total (PSMA (LS174T-PSMA cells) [4]): 18.9% and 18.93%
total binding to PSMA expressing cells relative to PSMA-617 (PSMA (LS174T-PSMA cells) [4]; ratio of total binding percentages): 2.6 times
